We go through two compounds from patent US5559232A, “Carboxamides” (Hoffmann-La Roche Inc., priority 1993, dated 1996).

For orientation: Ki means a measure of affinity in units of concentration, obtained from inhibition or displacement. A higher Ki goes with lower affinity.

Assay [1] has as its target trypsin. Briefly: inhibition of the amidolytic activity of trypsin (chromogenic substrate S-2251). Type of assay: biochemical. Particulars: substrate S-2251, 200 and 750 μM, otherwise analogous to thrombin.
Assay [2] addresses human thrombin (Homo sapiens, UniProt P00734). The assay can be described thus: inhibition of the amidolytic activity of thrombin (chromogenic substrate S-2238). It is filed as biochemical. Conditions: for Ki: human thrombin 0.5 nM, substrate S-2238, pH 7.8, room temperature; for q (ratio of the inhibition of trypsin to the inhibition of thrombin): specificity: Ki trypsin / Ki thrombin.

In assay [1], `CCOC(=O)CN(C(=O)[C@H](CC(=O)NC[C@@H]1CCCN(C(=N)N)C1)NC(=O)OCc1ccccc1)C1CC1` [Example 1, ethyl [[(S)-3-[(S)-1-(amino-imino-methyl)-piperidin-3-ylmethylcarbamoyl]-2-benzyloxycarbonylamino-propionyl]-cyclopropyl-amino]-acetate] returned a Ki of 70 µM. Moreover, in assay [2], affinity was put at a Ki of 1.2 µM and the “q (ratio of the inhibition of trypsin to the inhibition of thrombin)” value is recorded as 58.
For the compound `CCOC(=O)CN(C(=O)[C@H](CC(=O)NC[C@@H]1CCCN(C(=N)N)C1)NC(=O)NCc1ccccc1)C1CC1` [Example 9a, ethyl [[(S)-3-[(S)-1-(amino-imino-methyl)-piperidin-3-ylmethylcarbamoyl]-2-(3-benzyi-ureido)-propionyl]-cyclopropylamino]-acetate], the values for the Ki in assay [1] and in assay [2] were 95 µM and 1.3 µM, respectively. Further, in assay [2], the “q (ratio of the inhibition of trypsin to the inhibition of thrombin)” value was 73.
